Values after ≈ are worked out from the molar mass of the structure shown. Active and inactive are the calls of the source. The rule behind the calls is not given here.
How the values were obtained:
[1] = target: T1, Virulence sensor histidine kinase PhoQ (Salmonella typhimurium (strain LT2 / SGSC1412 / ATCC 700720), UniProt P0DM80); assay: (§1) Inhibition of recombinant Salmonella typhimurium N-terminal His6-SUMO-tagged DHp-catalytic domain PhoQ (257 to 487 residues) autophosphorylation expressed in Escherichia coli BL21 (DE3) preincubated for 10 mins followed by [gamma-32P]-ATP addition after 30 mins by phosphotransferase dot blot assay; parameters: species or system Salmonella enterica subsp. enterica serovar Typhimurium
T1 sequence (P0DM80 whole entry): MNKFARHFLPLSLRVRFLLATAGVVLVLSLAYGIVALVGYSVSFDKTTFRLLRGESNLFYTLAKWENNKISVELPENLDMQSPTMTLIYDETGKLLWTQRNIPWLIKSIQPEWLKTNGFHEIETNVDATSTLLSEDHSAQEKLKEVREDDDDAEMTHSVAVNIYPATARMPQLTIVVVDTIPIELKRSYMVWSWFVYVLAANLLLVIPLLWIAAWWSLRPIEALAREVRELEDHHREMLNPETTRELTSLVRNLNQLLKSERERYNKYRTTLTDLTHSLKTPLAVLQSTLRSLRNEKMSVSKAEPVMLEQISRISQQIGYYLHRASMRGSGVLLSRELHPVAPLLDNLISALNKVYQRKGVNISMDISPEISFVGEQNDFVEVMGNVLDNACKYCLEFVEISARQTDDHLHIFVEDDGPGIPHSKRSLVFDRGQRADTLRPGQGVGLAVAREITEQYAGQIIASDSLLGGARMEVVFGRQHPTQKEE

[2] = target: Cell cycle histidine kinase CckA (Caulobacter vibrioides, UniProt Q9X688); assay: Inhibition of recombinant Caulobacter vibrioides cell cycle histidine kinase CckA deltaTM mutant DHp domain (70 to 691 residues) expressed in Escherichia coli in presence of varying levels of ATP measured every 60 secs for 2 hrs by PK/LDH enzyme coupled assay
[3] = Hemolytic activity against sheep RBC at 0.5 mM after 30 mins relative to control; format: ADME, cell-based, Ovis aries, Erythrocyte; conditions: sheep red blood cells (erythrocytes), read-out: Activity
[4] = system: Escherichia coli; assay: Antibacterial activity against Escherichia coli DC2 after 24 hrs by broth dilution method; format: functional; conditions: DC2, 24 h
[5] = system: Caulobacter vibrioides; assay: Antibacterial activity against Caulobacter crescentus NA1000 after 24 hrs by broth dilution method; format: functional; conditions: NA1000, 24 h
[6] = target: T2, Virulence sensor histidine kinase PhoQ (Salmonella typhimurium (strain LT2 / SGSC1412 / ATCC 700720)) (UniProt P0DM80); assay: as §1, with “BL21(DE3) at 500 uM” for “BL21 (DE3)”, “assay relative to control” for “assay”; parameters: scale not given: the % may be the effect or the level left; conditions: Salmonella enterica subsp. enterica serovar Typhimurium
T2 sequence (whole entry): T1 sequence (P0DM80 whole entry)

[7] = target: T3, Cell cycle histidine kinase CckA (Caulobacter vibrioides) (UniProt Q9X688); assay: Binding affinity to recombinant Caulobacter vibrioides cell cycle histidine kinase CckA delta 3 mutant DHp domain (190 to 562 residues) expressed in Escherichia coli assessed as change in metlting temperature at 30 uM after 2 mins by SYPRO orange dye based DSF assay
T3 sequence (whole entry): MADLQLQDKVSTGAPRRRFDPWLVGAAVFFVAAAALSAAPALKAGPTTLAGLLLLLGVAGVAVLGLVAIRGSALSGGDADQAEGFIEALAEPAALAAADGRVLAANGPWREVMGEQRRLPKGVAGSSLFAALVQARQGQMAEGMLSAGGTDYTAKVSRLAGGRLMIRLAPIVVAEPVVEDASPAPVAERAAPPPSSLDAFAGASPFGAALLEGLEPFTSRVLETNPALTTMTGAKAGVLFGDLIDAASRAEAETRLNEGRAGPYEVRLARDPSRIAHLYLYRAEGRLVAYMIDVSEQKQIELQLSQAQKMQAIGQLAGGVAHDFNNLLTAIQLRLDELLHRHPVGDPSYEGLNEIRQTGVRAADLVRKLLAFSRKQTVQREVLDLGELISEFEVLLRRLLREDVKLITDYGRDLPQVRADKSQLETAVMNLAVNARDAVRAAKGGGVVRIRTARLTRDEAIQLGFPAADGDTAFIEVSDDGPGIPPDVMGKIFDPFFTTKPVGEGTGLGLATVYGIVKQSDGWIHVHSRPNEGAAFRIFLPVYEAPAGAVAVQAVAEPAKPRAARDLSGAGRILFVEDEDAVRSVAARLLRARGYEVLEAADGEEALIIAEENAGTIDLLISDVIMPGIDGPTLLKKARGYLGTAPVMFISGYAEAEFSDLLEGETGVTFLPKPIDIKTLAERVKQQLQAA

[8] = target: T4, Histidine protein kinase DivJ (Caulobacter vibrioides (strain ATCC 19089 / CB15) (Caulobactercrescentus)) (UniProt Q03228); assay: Inhibition of recombinant Caulobacter vibrioides N-terminal His6-tagged DHp-catalytic domain DivJ (188 to 585 residues) autophosphorylation expressed in Escherichia coli BL21(DE3) at 500 uM preincubated for 10 mins followed by [gamma-32P]-ATP addition after 15 mins by phosphotransferase dot blot assay relative to control; parameters: scale not given: the % may be the effect or the level left
T4 sequence (whole entry): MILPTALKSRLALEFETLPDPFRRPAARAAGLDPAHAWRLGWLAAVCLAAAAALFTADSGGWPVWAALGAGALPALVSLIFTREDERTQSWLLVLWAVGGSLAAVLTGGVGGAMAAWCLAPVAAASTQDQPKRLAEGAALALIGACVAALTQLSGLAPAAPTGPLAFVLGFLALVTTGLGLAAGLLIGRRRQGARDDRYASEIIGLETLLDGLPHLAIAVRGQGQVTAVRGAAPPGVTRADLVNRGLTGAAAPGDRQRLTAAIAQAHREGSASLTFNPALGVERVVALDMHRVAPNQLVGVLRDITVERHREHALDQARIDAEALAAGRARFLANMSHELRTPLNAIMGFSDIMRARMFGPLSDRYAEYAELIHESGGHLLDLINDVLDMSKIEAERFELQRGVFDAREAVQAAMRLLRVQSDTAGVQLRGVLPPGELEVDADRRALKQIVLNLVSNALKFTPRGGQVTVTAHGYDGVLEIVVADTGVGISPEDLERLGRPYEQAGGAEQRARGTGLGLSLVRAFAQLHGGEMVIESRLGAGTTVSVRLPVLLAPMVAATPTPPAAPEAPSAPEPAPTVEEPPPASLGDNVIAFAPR

[9] = system: Bacillus subtilis; assay: Antibacterial activity against Bacillus subtilis YB886 after 24 hrs by broth dilution method; format: functional; conditions: YB886, 24 h
[10] = target: T2, Virulence sensor histidine kinase PhoQ (Salmonella typhimurium (strain LT2 / SGSC1412 / ATCC 700720)); assay: as §1, with “(DE3) at 800 uM” for “(DE3)”, “assay relative to control” for “assay”; parameters: scale not given: the % may be the effect or the level left; conditions: Salmonella enterica subsp. enterica serovar Typhimurium
[11] = target: T2, Virulence sensor histidine kinase PhoQ (Salmonella typhimurium (strain LT2 / SGSC1412 / ATCC 700720)); assay: Inhibition of recombinant Salmonella typhimurium N-terminal His6-SUMO-tagged PhoQ (257 to 487 residues) expressed in Escherichia coli BL21 (DE3) assessed as enzyme aggregation at 400 uM after 30 mins by native-PAGE analysis; conditions: Salmonella enterica subsp. enterica serovar Typhimurium
[12] = target: T3, Cell cycle histidine kinase CckA (Caulobacter vibrioides); assay: Inhibition of recombinant Caulobacter vibrioides cell cycle histidine kinase CckA deltaTM mutant DHp domain (70 to 691 residues) expressed in Escherichia coli at 250 uM in presence of varying levels of ATP measured every 60 secs for 2 hrs by PK/LDH enzyme coupled assay relative to control

Row | SMILES | IC50 [1] [µM] | IC50 [2] [µM] | hemolysis at 0.5 h, 500 µM [3] [%] | MIC [4] [µM] | MIC [5] [µM] | Activity [6] [%] | ΔTm [7] [°C] | Activity [8] [%] | MIC [9] [µM] | Activity [10] [%] | inhibition [11] | inhibition [12] [%]
1 | CCc1cc(-c2n[nH]c(C)c2-c2ccc3c(c2)OCCO3)c(O)cc1O | 261 | 28 to 30 | 14 |  |  |  |  |  |  |  |  | 
2 | Cc1[nH]nc(-c2cc(Cl)c(O)cc2O)c1-c1ccccc1 |  | 17.5 | 1 |  |  |  |  |  |  |  |  | 
3 | COc1ccc(-c2c[nH]nc2-c2ccc(O)cc2O)cc1 |  | 56.9 | 3 | 37.5 to 112 (≈ 10.6 to 31.8 µg/mL) | > 300 | 87 | 3.5 | 85 | > 300 |  |  | 
4 | COc1ccc(-c2c[nH]nc2-c2cc(Cl)c(O)cc2O)cc1 |  | 32.7 | 0 | 37.5 (≈ 11.9 µg/mL) | 225 (≈ 71.3 µg/mL) | 62 | 4.2 | 112 | 150 (≈ 47.5 µg/mL) |  |  | 
5 | COc1ccc(-c2c(-c3ccc(O)cc3O)n[nH]c2C)cc1 |  | 46 | 2 | 75 to 150 (≈ 22.2 to 44.4 µg/mL) | > 300 | 76 | 2.5 | 117 | > 300 |  |  | 
6 | CCc1cc(-c2n[nH]c(C)c2-c2ccc(OC)cc2)c(O)cc1O |  | 18.6 | 15 | 75 (≈ 24.3 µg/mL) | 225 (≈ 73 µg/mL) | 36 | 4.1 | 118 | 112 (≈ 36.5 µg/mL) |  |  | 
7 | Oc1cc(O)c(-c2[nH]ncc2-c2ccc3c(c2)OCCO3)cc1Cl |  |  |  | 37.5 to 75 (≈ 12.9 to 25.9 µg/mL) | 150 to 225 (≈ 51.7 to 77.6 µg/mL) | 63 | 3.3 | 117 | 112 to 225 (≈ 38.8 to 77.6 µg/mL) | 48 | inactive | 
8 | Oc1cc(O)c(-c2n[nH]cc2-c2ccc3c(c2)OCCO3)cc1Cl |  | 32.3 to 44 | 1 |  |  |  |  |  |  |  |  | 
9 | CCNC(=O)c1noc(-c2cc(C(C)C)c(O)cc2O)c1-c1ccc(CN2CCOCC2)cc1 [LUMINESPIB] |  | 7.3 to 28 | 1 | 37.5 to 75 (≈ 17.5 to 34.9 µg/mL) | > 300 | 73 | 1.8 | 109 | > 300 | 56 | inactive | 
10 | Nc1ncnc2c1ncn2[C@@H]1O[C@H](COP(=O)(O)OP(=O)(O)NP(=O)(O)O)[C@@H](O)[C@H]1O |  |  |  |  |  |  | 3.5 |  |  |  |  | 
11 | CN(C)c1cc2c(cc1Sc1nc3c(N)nccc3n1CCNCC(C)(C)C)OCO2 [CUDC-305] |  |  | 3 | 4.7 to 75 (≈ 2.08 to 33.2 µg/mL) | > 300 | 110 | 0.4 | 96 | > 300 |  |  | 79
12 | Cc1[nH]nc(-c2cc(Cl)c(O)cc2O)c1-c1ccc2c(c1)OCCO2 | 270 | 11.2 to 28 | 2 | 75 (≈ 26.9 µg/mL) | 225 (≈ 80.7 µg/mL) | 35 | 5.3 | 113 | 112 to 150 (≈ 40.4 to 53.8 µg/mL) |  | inactive | 
13 | COc1c(C)cnc(Cn2cnc3c(Cl)nc(N)nc32)c1C [BIIB021] |  |  | 6 | > 300 | > 300 | 87 | 0.7 | 128 | > 300 |  |  | 87
14 | Oc1cc(O)c(-c2n[nH]cc2-c2ccccc2)cc1Cl |  | 33.6 | 0 | 37.5 (≈ 10.8 µg/mL) | 150 to 225 (≈ 43 to 64.5 µg/mL) | 63 | 3.5 | 92 | 225 (≈ 64.5 µg/mL) |  |  | 
15 | CC(C)NCCCn1c(Sc2cc3c(cc2I)OCO3)nc2c(N)ncnc21 [PU-H71] |  |  | 1 | 75 to 225 (≈ 38.4 to 115 µg/mL) | > 300 | 103 | 0.5 | 122 | > 300 |  |  | 61
16 | Cc1n[nH]c(-c2cc(Cl)c(O)cc2O)c1-c1ccccc1 |  |  |  | 37.5 to 75 (≈ 11.3 to 22.6 µg/mL) | 225 (≈ 67.7 µg/mL) | 45 | 4.5 | 115 | 150 (≈ 45.1 µg/mL) |  |  | 

Reference: ChEMBL document CHEMBL4184156, “Repurposing Hsp90 inhibitors as antibiotics targeting histidine kinases” (Bioorg Med Chem Lett, 2017)
